Results published in patent US9902776B2, “Anti-EGFR antibody and anti-c-Met/anti-EGFR bispecific antibodies comprising the same” (Samsung Electronics Co., Ltd., priority 2013, dated 2018).

Assays:
SNU5 cells = test: SNU5 xenograft tumor model in CB.17-SCID mice; format: in vivo; settings: intravenous, 4 weeks; antibodies 1 mg/kg once a week, Irinotecan 10 mg/kg twice a week; initial size 100 mm^3
Description: SNU5 cells (ATCC) were injected into dorsal subcutis of 5-6 week old CB.17-SCID mice (Shanghai SLAC Laboratory Animal Co. Ltd.) at the amount of 3×10^6 cell/mouse, to prepare tumor models. When the tumor volume reaches 100 mm^3, 1 mg/kg of L3-1Y-IgG2 and 1 mg/kg of anti-c-Met/anti-EGFR bispecific antibody ME22S were intravenously administered alone or in combination once a week for 4 weeks in total. A group where PBS is intravenously administered thereto was used as a negative control, and a group where 10 mg/kg of an anticancer drug, Irinotecan (Pfizer Inc.), was intravenously administered thereto twice a week for 4 weeks in total, was used as a positive control. The tumor size (length×breadth×height) was measured twice each week, and at the last week, the mice were autopsied.

c-Met = c-Met (Homo sapiens, UniProt P08581); test: Specificity of expressed scFv of huAbF46; format: binding; parameters: endogenous in cells; host or cells: SNU638 (A8, A11); MKN45 (A11); settings: after expression
Description: For use in constructing an scFv of the huAbF46 antibody from the heavy and light chain variable regions of the huAbF46 antibody, a gene was designed to have the structure of “VH-linker-VL” for each of the heavy and the light chain variable region, with the linker including the amino acid sequence “[…]” (SEQ ID NO: 54). A polynucleotide sequence (SEQ ID NO: 55) encoding the designed scFv of huAbF46 was synthesized in Bioneer and an expression vector for the polynucleotide had the nucleotide sequence of SEQ ID NO: 56.

c-Met, sequence (P08581 25-1390): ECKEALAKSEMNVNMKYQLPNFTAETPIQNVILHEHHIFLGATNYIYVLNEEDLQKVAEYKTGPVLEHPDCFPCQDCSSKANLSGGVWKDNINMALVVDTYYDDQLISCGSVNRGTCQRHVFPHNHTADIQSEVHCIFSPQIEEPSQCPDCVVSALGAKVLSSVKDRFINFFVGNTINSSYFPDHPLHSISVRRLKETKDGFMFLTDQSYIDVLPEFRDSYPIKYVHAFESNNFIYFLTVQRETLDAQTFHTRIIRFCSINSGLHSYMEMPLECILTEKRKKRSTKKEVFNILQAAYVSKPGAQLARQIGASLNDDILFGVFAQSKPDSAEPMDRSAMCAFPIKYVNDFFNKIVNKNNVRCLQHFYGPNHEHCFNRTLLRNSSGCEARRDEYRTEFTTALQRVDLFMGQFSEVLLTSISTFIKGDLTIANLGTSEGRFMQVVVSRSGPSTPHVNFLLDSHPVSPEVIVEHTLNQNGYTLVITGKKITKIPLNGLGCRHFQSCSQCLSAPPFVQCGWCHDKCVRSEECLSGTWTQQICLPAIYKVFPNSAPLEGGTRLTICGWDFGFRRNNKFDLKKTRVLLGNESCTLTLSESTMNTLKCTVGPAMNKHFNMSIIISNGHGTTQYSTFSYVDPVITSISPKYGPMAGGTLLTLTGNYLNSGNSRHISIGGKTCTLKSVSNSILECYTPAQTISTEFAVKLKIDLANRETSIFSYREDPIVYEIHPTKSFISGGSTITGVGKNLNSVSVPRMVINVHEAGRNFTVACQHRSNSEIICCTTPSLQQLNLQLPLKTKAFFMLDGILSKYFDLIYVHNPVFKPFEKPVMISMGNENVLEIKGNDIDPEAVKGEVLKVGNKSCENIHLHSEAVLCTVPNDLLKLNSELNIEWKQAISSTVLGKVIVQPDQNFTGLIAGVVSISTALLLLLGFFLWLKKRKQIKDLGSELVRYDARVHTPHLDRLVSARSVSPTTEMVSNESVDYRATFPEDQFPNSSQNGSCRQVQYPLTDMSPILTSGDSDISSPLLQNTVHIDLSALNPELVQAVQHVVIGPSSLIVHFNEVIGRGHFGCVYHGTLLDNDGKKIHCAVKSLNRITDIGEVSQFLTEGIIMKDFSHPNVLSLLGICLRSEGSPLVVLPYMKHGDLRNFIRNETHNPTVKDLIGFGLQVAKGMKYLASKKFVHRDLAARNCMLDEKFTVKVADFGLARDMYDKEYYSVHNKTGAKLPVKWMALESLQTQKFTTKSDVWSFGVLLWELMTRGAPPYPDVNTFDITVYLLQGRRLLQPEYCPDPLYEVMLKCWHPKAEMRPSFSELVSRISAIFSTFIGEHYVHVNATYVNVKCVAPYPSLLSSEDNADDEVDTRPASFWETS

specificity to c-Met (c-Met) | Molecule | final tumor size (SNU5 cells)
– | CCc1c2c(nc3ccc(OC(=O)N4CCC(N5CCCCC5)CC4)cc13)-c1cc3c(c(=O)n1C2)COC(=O)[C@]3(O)CC [Irinotecan, reference compound] | about 72 mm^3
exhibit specificity to c-Met | scFv of huAbF46: scFv of huAbF46, structure VH-linker-VL with linker SEQ ID NO: 54 (protein) scFv: EVQLVESGGGLVQPGGSLRLSCAASGFTFTDYYMSWVRQAPGKGLEWLGFIRNKANGYTTEYSASVKGRFTISRDNSKNTLYLQMNSLRAEDTAVYYCARDNWFAYWGQGTLVTVSSGLGGLGGGGSGGGGSGGSSGVGSDIQMTQSPSSLSASVGDRVTITCKSSQSLLASGNQNNYLAWHQQKPGKAPKMLIIWASTRVSGVPSRFSGSGSGTDFTLTISSLQPEDFATYYCQQSYSAPLTFGQGTKVEIKR | –
